EP0423373A1, “STYRENE DERIVATIVE AND METHOD OF PRODUCTION THEREOF, POLYSTYRENE DERIVATIVE PRODUCED THEREFROM AND METHOD OF PRODUCING THE SAME, AND ULTRAVIOLET ABSORBENT AND COSMETICS CONTAINING SAID POLYSTYRENE DERIVATIVE AS ACTIVE INGREDIENT” (EARTH CHEMICAL CO., LTD., priority 1989, dated 1990)

What was measured:
[1] = Ultraviolet absorption spectrum; assay type: physicochemical; conditions: ethanol solution, 10 ppm, quartz cell, optical path 10 mm
Source text: The wavelength at the maximum absorption (λ max) and the molar extinction coefficient (E) were found by measuring ultraviolet absorption spectrum of an ethanol solution of the sample having a concentration of 10 ppm in a quartz cell having an optical path of 10 mm by means of a spectrophotometer (UV-200S, made by SHIMADZU CORPORATION).

skin of a quinea pig = test: Percutaneous absorption, diffusion cell (Franz); assay type: in vitro ADME; conditions: 1 % aqueous solution of sodium salt, 33 C, 20 hours
Description: The skin of a quinea pig was peeled, washed with physiological saline and then set in a percutaneous absopriton apparatus which was made in accordance with the description in Franz, T. J, J. Invest, Dermotal 64 , 190, 1975, by means of a diffusion cell. The sample room was filled with […] of a 1 % aqueous solution of sodium salt of the obtained polystyrene derivative, and the acceptor was filled with physiological saline. After maintaining at 33 C for 20 hours while stirring with a magnetic stirrier, the physiological saline in the acceptor was taken out, and the ultraviolet absorbency was measured. As the result, when the polystyrene derivative was used, the absorption curve of the ultraviolet absorption spectrum was similar to that obtained when the physiological saline was solely used as a negative control. When a compound having a lower molecular weight (1 % aqueous solution of sodium salt of p-aminobenzoic acid) was used as a positive control, the compound was observed by the ultraviolet absorption spectrum corresponding to 95 ppm in connection.

Structure (SMILES)	Molar extinction coefficient (ε) [1]	Wavelength at the maximum absorption (λ max) [1] [nm]	compound observed in the acceptor by the ultraviolet absorption spectrum (skin of a quinea pig) [ppm]
C=Cc1ccc(CN(N=Cc2ccccc2)C(=S)NC)cc1 [Example 6, benzaldehyde 4-methyl-2-p-vinylbenzylthiosemicarbazone]	33,000	317	
C=Cc1ccc(C(=O)CC(=O)c2ccc(C(=O)O)cc2)cc1 [Example 57, 4-carboxy-4'-vinyldibenzoylmethane]	34,000	361	
C=Cc1ccc(CN(N=Cc2cccs2)C(=S)NC)cc1 [Example 12, 2'-thienylaldehyde 4-methyl-2-p-vinylbenzylthiosemicarbazone]	39,000	333	
C=Cc1ccc(CN(N=Cc2ccc(C(=O)O)cc2)C(=S)NC)cc1 [Example 1, p'-carboxybenzaidehyde 4-methyl-2-p-vinylbenzylthiosemicarbazone]	33,000	331	
C=Cc1ccc(CN(N=CC=Cc2ccccc2)C(=S)NC)cc1 [Example 14, cinnamaldehyde 4-methyl-2-p-vinylbenzylthiosemicarbazone]	46,000	335	
C=Cc1ccc(CN(N=Cc2ccc(C(=O)O)cc2)C(N)=O)cc1 [Example 4, p'-carboxybenzaldehyde 2-p-vinylbenzylsemicarbazone]	29,000	306	
Nc1ccc(C(=O)O)cc1 [p-aminobenzoic acid]			95
C=Cc1ccc(CN(N=Cc2ccc(Cl)cc2)C(=S)NC)cc1 [Example 9, p'-chlorobenzaldehyde 4-methyl-2-p-vinylbenzylthiosemicarbazone]	41,000	318	
C=Cc1ccc(C(=O)CC(=O)c2ccc(C(=O)OC)cc2)cc1 [4-methyoxycarbonyl-4'-vinyldibenzoylmethane]	33,000	361	
C=Cc1ccc(CN(N=Cc2ccco2)C(=S)NC)cc1 [Example 11, 2'-furylaldehyde 4-methyl-2-p-vinylbenzylthiosemicarbazone]	34,000	321	
C=Cc1ccc(CN(N=Cc2ccc(C(=O)O)cc2)C(=O)NC)cc1 [Example 5, p'-carboxybenzaldehyde 4-methyl-2-p-vinylbenzylsemicarbazone]	29,000	310	

The remaining lines, values ahead:

Molar extinction coefficient (ε) [1]	Wavelength at the maximum absorption (λ max) [1] [nm]	compound observed in the acceptor by the ultraviolet absorption spectrum (skin of a quinea pig) [ppm]	Structure (SMILES)
60,000	348		C=Cc1ccc(CN(N=Cc2ccc(C=CC(=O)O)cc2)C(=S)NC)cc1 [Example 3, p'-carboxyvinylenebenzaldehyde 4-methyl-2-p-vinylbenzylthiosemicarbazone]
33,000	317		C=Cc1ccc(CN(N=Cc2ccc(C)cc2)C(=S)NC)cc1 [Example 7, p'-methylbenzaldehyde 4-methyl-2-p-vinylbenzylthiosemicarbazone]
36,000	359		C=Cc1ccc(CN(N=Cc2ccc([N+](=O)[O-])cc2)C(=S)NC)cc1 [Example 10, p'-nitrobenzaldehyde 4-methyl-2-p-vinylbenzylthiosemicarbazone]
40,000	332		C=Cc1ccc(CNC(=S)N(C)N=Cc2ccc(C(=O)O)cc2)cc1 [Example 2, p'-carboxybenzaldehyde 2-methyl-4-P-vinylbenzylthiosemicarbazone]
38,000	358		C=Cc1ccc(CN(N=Cc2ccc(N(C)C)cc2)C(=S)NC)cc1 [Example 8, p'-dimethylaminobenzaldehyde 4-methyl-2-p-vinylbenzylthiosemicarbazone]
36,000	325		C=Cc1ccc(CN(N=Cc2ccncc2)C(=S)NC)cc1 [Example 13, isonicotinic aldehyde 4-methyl-2-p-vinylbenzylthiosemicarbazone]
